From US20250114362A1, “METHODS AND COMPOSITIONS FOR TREATMENT OF CUTANEOUS PROLIFERATIVE DISORDERS AND OTHER SKIN CONDITIONS” (ASYMMETRIC THERAPEUTICS, LLC, priority 2022, published 2025)
“And” between values parts separate entries of the source, which are not always exact repeats. Equal values may be shown once.

Assays:
HaCaT cells = experiment: M5 cocktail psoriasis-like HaCaT keratinocyte model, live and dead cell numbers by MultiTox-Glo Multiplex Cytotoxicity Assay
Experimental: Immortalized human keratinocytes (HaCaT cells) purchased from AddexBio (San Diego, CA) were maintained in vitro in Dulbecco's modified Eagle's medium (DMEM) supplemented with 10% Fetal Bovine Serum (FBS) and antibiotics (100 U/mL penicillin and […] streptomycin) and cultured in an incubator with 5% CO2 at 37° C.
HaCaT cells were seeded at approximately 50% density (1×10^4 cells/well) and after 16 h the medium was replaced with 50 μL of pre-treatment medium containing different concentrations of allopurinol (0, 0.5, or 3 mM) or methotrexate (1 μM) and placed back into the incubator. Treatment media was prepared using standard media containing vehicle control (PBS) or M5 cocktail.
Other HaCaT cells were incubated in vitro for 72 hours in the presence of a M5 composition that also included 1.0 μM methotrexate, 0.5 mM allopurinol, 3.0 mM allopurinol, 0.5 mM oxypurinol, or 3.0 mM oxypurinol.
The number of live and dead cells were determined by the MultiTox-Glo Multiplex Cytotoxicity Assay (Promega, Madison WI) according to the manufacturer's protocol. A dilution series of cells was used to generate a standard curve for calculation of cell number in each well. The total number of cells was the sum of the live and dead cells.

TGF-β = experiment: MatTek PSE culture system, TGF-β mRNA by qPCR; format: cell-based, human; conditions: 100 nM; after two days of treatment
Experimental: (§1) Other markers of cell proliferation were also measured, namely (protein p21), and four markers of inflammatory signaling (IL17A, IL23A, TNF-α, and transforming growth factor beta (TGF-β)) in the MatTek PSE culture system after two days of treatment were also determined. Ki67 is a nuclear protein and a replication marker. The marker levels were determined by isolating total RNA by a Promega SV96 Total RNA Isolation Vacuum System (Promega, Madison, WI) according to the manufacturer's instructions. The total RNA was reverse transcribed using an ABI High Capacity cDNA reverse transcription kit (Applied Biosystems, Foster City, CA). Quantitative real-time polymerase chain reaction (qPCR) was performed with the use of a SYBR Green PCR Master Mix (Applied Biosystems) according to the manufacturer's protocol and amplified on a StepOnePlus Real-Time PCR System.

IL23A = experiment: MatTek PSE culture system, IL23A mRNA by qPCR; format: cell-based, human; conditions: 100 nM; after two days of treatment
Experimental: as §1

Ki67 = experiment: MatTek PSE culture system, Ki67 level by PCR; format: cell-based, human; conditions: 100 nM
Experimental: The level of Ki67 in the MatTek tissue culture system was also determined. Ki67 is a nuclear protein and a replication marker. The level of Ki67 was determined by polymerase chain reaction (PCR) analysis with standard protocols. The relative levels are normalized with respect to the measured Ki67 level of the control at Day 0, which is adjusted to 1.0.
as §1

p21/Ki67 = experiment: MatTek PSE culture system, ratio of p21 to Ki67 mRNA levels; format: cell-based, human; conditions: after two days of treatment; treatment compositions of Table 5
Experimental: Ki67 is a replication marker for cells and the lower the value, the lower the replication rate. P21 is a protein which is a marker for the inhibition of cell proliferation. Thus, an increased ratio of P21/Ki67 indicates decreased cell replication. FIG. 9 illustrates this ratio under several conditions as described in Example 2.
as §1
To highlight effects on cell proliferation, the ratio of p21 to Ki67 mRNA levels were calculated, with the results being shown in FIG. 9.

TNF-α = experiment: MatTek PSE culture system, TNF-α mRNA by qPCR; format: cell-based, human; conditions: 100 nM; after two days of treatment
Experimental: as §1

p21 = experiment: MatTek PSE culture system, p21 mRNA by qPCR; format: cell-based, human; conditions: 100 nM; after two days of treatment
Experimental: as §1

[1] = system: MatTek human PSE culture system (SOR-300-FT); experiment: MatTek human PSE culture system, tissue layer thickness and histology; conditions: 100 nM
Text: The thickness of each of the three tissue layers of skin was monitored and measured after two days and after six days of exposure to the treatment medium in a blinded fashion by a board-certified and nationally respected pathologist.

IL17A = experiment: MatTek PSE culture system, IL17A mRNA by qPCR; format: cell-based, human; conditions: 100 nM; after two days of treatment
Experimental: as §1

[2] = 1.0 μM, 0 hours (baseline), M5 cocktail, ± standard deviation
[3] = 1.0 μM, 0 hours (baseline), relative to 9177 live cells at zero hours
[4] = 1.0 μM, 48 hours, M5 cocktail, ± standard deviation
[5] = 1.0 μM, 48 hours, relative to 9177 live cells at zero hours
[6] = 1.0 μM, 72 hours, M5 cocktail, ± standard deviation
[7] = 1.0 μM, 72 hours, relative to 9177 live cells at zero hours

## CN(Cc1cnc2nc(N)nc(N)c2n1)c1ccc(C(=O)N[C@@H](CCC(=O)O)C(=O)O)cc1 [methotrexate]
HaCaT cells; [2]
  Cell Counts, 0 hours, Dead: 801 ± 19
  Cell Counts, 0 hours, Live: 9177 ± 90
HaCaT cells; [3]
  Cell Ratios, 0 hours, Dead: 0.087
  Cell Ratios, 0 hours, Total: 1.087
HaCaT cells; [4]
  Cell Counts, 48 hours, Dead: 4826 ± 464
  Cell Counts, 48 hours, Total: 11194 ± 545
HaCaT cells; [5]
  Cell Ratios, 48 hours, Dead: 0.526
  Cell Ratios, 48 hours, Total: 1.220
HaCaT cells; [6]
  Cell Counts, 72 hours, Dead: 6300 ± 289
  Cell Counts, 72 hours, Total: 11587 ± 593
HaCaT cells; [7]
  Cell Ratios, 72 hours, Dead: 0.69 and 0.686
  Cell Ratios, 72 hours, Total: 1.26 and 1.263

## O=c1[nH]c(=O)c2c[nH]nc2[nH]1 [oxypurinol]
HaCaT cells; 0.5 mM, 0 hours (baseline), M5 cocktail, ± standard deviation
  Cell Counts, 0 hours, Live: 9177 ± 90
HaCaT cells; 0.5 mM, 0 hours (baseline), relative to 9177 live cells at zero hours
  Cell Ratios, 0 hours, Total: 1.087
HaCaT cells; 0.5 mM, 48 hours, M5 cocktail, ± standard deviation
  Cell Counts, 48 hours, Total: 14960 ± 100
HaCaT cells; 0.5 mM, 48 hours, relative to 9177 live cells at zero hours
  Cell Ratios, 48 hours, Total: 1.630
HaCaT cells; 0.5 mM, 72 hours, M5 cocktail, ± standard deviation
  Cell Counts, 72 hours, Total: 17036 ± 222
HaCaT cells; 0.5 mM, 72 hours, relative to 9177 live cells at zero hours
  Cell Ratios, 72 hours, Total: 1.86 and 1.856
HaCaT cells; 3.0 mM, 0 hours (baseline), M5 cocktail, ± standard deviation
  Cell Counts, 0 hours, Live: 9177 ± 90
HaCaT cells; 3.0 mM, 0 hours (baseline), relative to 9177 live cells at zero hours
  Cell Ratios, 0 hours, Total: 1.087
HaCaT cells; 3.0 mM, 48 hours, M5 cocktail, ± standard deviation
  Cell Counts, 48 hours, Total: 13069 ± 142
HaCaT cells; 3.0 mM, 48 hours, relative to 9177 live cells at zero hours
  Cell Ratios, 48 hours, Total: 1.424
HaCaT cells; 3.0 mM, 72 hours, M5 cocktail, ± standard deviation
  Cell Counts, 72 hours, Total: 14228 ± 282
HaCaT cells; 3.0 mM, 72 hours, relative to 9177 live cells at zero hours
  Cell Ratios, 72 hours, Total: 1.55
HaCaT cells; human, 0 h, 0.5 mM
  Cell Counts, 0 hours, Dead: 801 ± 19
  Cell Ratios, 0 hours, Dead: 0.087
HaCaT cells; human, 0 h, 3 mM
  Cell Counts, 0 hours, Dead: 801 ± 19
  Cell Ratios, 0 hours, Dead: 0.087
HaCaT cells; human, 48 h, 0.5 mM
  Cell Counts, 48 hours, Dead: 2937 ± 65
  Cell Ratios, 48 hours, Dead: 0.320
HaCaT cells; human, 48 h, 3 mM
  Cell Counts, 48 hours, Dead: 2508 ± 124
  Cell Ratios, 48 hours, Dead: 0.273
HaCaT cells; human, 72 h, 0.5 mM
  Cell Counts, 72 hours, Dead: 4761 ± 200
HaCaT cells; human, 72 h, 3 mM
  Cell Counts, 72 hours, Dead: 3691 ± 244

## Vitamin D
TGF-β
  Relative Expression Levels, TGF-β: 0.35 ± 0.09
IL23A
  Relative Expression Levels, IL23A: 0.45 ± 0.07
Ki67; Day 6, normalized to control at Day 0 = 1.0
  Relative Ki67 Level: 1.99
Ki67; after two days of treatment
  Relative Expression Levels, Ki67: 0.34 ± 0.01
p21/Ki67
  p21/Ki67 ratio (mRNA levels): markedly increased
TNF-α
  Relative Expression Levels, TNF-α: 0.48 ± 0.17
p21
  Relative Expression Levels, p21: 5.10 ± 0.70
[1]; 2 days
  Layer Thickness, Dermis: 0.25 mm
  Layer Thickness, Epidermis: 0.15 mm
  Layer Thickness, Stratum Corneum: 0.05 mm
[1]; 6 days
  Layer Thickness, Dermis: 0.2 mm
  Layer Thickness, Epidermis: 0.2 mm
  Layer Thickness, Stratum Corneum: 0.2 mm
IL17A
  Relative Expression Levels, IL17A: 0.06 ± 0.03
